In US9695154B2, “Heteroaryl inhibitors of sumo activating enzyme” (MILLENNIUM PHARMACEUTICALS, INC., priority 2013, dated 2017):

Target: T1, recombinant human SAE enzyme (Homo sapiens, UniProt Q9UBT2)
T1 sequence (Q9UBT2 1-640): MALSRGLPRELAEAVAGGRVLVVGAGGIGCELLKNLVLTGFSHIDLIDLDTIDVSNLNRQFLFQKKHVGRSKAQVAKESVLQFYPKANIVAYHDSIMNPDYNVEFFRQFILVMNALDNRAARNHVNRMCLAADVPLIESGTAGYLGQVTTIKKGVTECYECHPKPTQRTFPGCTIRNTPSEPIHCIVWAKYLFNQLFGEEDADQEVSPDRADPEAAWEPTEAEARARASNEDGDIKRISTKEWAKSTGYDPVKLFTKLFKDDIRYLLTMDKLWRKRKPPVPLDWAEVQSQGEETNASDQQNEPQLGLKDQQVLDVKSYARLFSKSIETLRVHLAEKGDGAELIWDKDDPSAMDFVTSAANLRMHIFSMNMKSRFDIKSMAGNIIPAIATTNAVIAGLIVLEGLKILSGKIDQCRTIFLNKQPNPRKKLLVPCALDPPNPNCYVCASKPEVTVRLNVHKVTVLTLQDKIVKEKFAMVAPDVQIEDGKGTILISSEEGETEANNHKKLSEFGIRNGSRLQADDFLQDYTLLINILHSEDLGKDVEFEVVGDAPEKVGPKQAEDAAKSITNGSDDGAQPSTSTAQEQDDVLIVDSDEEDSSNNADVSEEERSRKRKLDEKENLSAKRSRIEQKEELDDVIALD
T1 sequence (Q9UBE0 1-346 partner): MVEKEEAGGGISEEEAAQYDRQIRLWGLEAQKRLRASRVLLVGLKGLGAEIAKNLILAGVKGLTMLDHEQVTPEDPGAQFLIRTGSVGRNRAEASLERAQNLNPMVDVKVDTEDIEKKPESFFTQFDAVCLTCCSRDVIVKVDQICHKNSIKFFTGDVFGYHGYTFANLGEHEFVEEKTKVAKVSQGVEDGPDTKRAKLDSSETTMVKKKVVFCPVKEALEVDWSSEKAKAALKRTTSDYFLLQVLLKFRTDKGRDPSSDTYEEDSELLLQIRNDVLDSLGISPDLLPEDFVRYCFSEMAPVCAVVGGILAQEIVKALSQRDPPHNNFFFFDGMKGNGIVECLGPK
Assay: SAE HTRF Enzyme Assay
Assay type: biochemical
Details: for IC50: class symbols A-C; for inhibition at 0.111 µM: compound concentration 0.111 μM, read-out: Percent Inhibition
Method: The SAE enzymatic reaction totals 50 μl and contains 50 mM HEPES Hemisodium (pH 7.5), 0.05% BSA, 5 mM MgCl2, 0.5 μM ATP, 250 μM GSH, 0.01 μM Ubc9-GST, 0.125 μM Sumo-Flag and 0.11 nM recombinant human SAE enzyme. The enzymatic reaction mixture with and without inhibitor, Is incubated at 24° C. for 105 min in a 384-well plate before termination with […] of Stop/Detection buffer (0.1M HEPES Hemisodium pH 7.5, 0.05% Tween20, 20 mM EDTA, 410 mM KF, 0.53 nM Europium-Cryptate labeled monoclonal anti-Flag M2 Antibody (CisBio International) and 8.125 μg/ml PHYCOLINK goat anti-GST allophycocyanin (XL-APC) antibody (Prozyme)). After incubation for 2 hours at 24° C., quantification of FRET is performed on the Pherostar™ (BMG Labtech). Percentage inhibition values at a single concentration or enzyme inhibition (IC50) values are determined from those curves. One skilled in the art will appreciate that the values generated either as percentage inhibition at a single concentration or IC50 values are subject to experimental variation.

Row | Compound | IC50 | inhibition at 0.111 µM
1 | C=CS(=O)(=O)c1cccc(Cn2ccc(C(=O)c3cncnc3N[C@@H]3C[C@H](COS(N)(=O)=O)[C@@H](O)[C@H]3O)n2)c1 [Compound I-321, [(1R,2R,3S,4R)-2,3-Dihydroxy-4-{[5-({1-[3-(vinylsulfonyl)benzyl]-1H-pyrazol-3-yl}carbonyl)pyrimidin-4-yl]amino}cyclopentyl]methyl sulfamate] | 0.01 to 0.1 µM | 89%
2 | NS(=O)(=O)OC[C@H]1C[C@@H](Nc2ncncc2C(=O)c2ccn(C3CCc4ccccc43)n2)[C@H](O)[C@@H]1O (single isomer, unassigned) [Compound I-323, {(1R,2R,3S,4R)-4-[(5-{[1-((1R)-2,3-dihydro-1H-inden-1-yl)-1H-pyrazol-3-yl]carbonyl}pyrimidin-4-yl)amino]-2,3-dihydroxycyclopentyl}methyl sulfamate or {(1R,2R,3S,4R)-4-[(5-{[1-((1S)-2,3-dihydro-1H-inden-1-yl)-1H-pyrazol-3-yl]carbonyl}pyrimidin-4-yl)amino]-2,3-dihydroxycyclopentyl}methyl sulfamate] | 0.01 to 0.1 µM | 82%
3 | CC(C)(C)C#CCn1ccc(C(=O)c2cncnc2N[C@@H]2C[C@H](COS(N)(=O)=O)[C@@H](O)[C@@H]2F)c1 [Compound I-26, {(1R,2R,3R,4R)-4-[(5-{[1-(4,4-dimethylpent-2-yn-1-yl)-1H-pyrrol-3-yl]carbonyl}pyrimidin-4-yl)amino]-3-fluoro-2-hydroxycyclopentyl}methyl sulfamate] | 0.01 to 0.1 µM | 90%
4 | NS(=O)(=O)OC[C@H]1C[C@@H](Nc2ncncc2C(=O)c2ccn(Cc3cc(F)ccc3F)n2)[C@H](O)[C@@H]1O [Compound I-91, {(1R,2R,3S,4R)-4-[(5-{[1-(2,5-difluorobenzyl)-1H-pyrazol-3-yl]carbonyl}pyrimidin-4-yl)amino]-2,3-dihydroxycyclopentyl}methyl sulfamate] | < 0.01 µM | 98%
5 | NS(=O)(=O)OC[C@H]1C[C@@H](Nc2ncncc2C(=O)c2ccn(CC3CCCO3)n2)C[C@@H]1O (mixture of isomers) [Compound I-293, [(1R,2S,4R)-2-hydroxy-4-{[5-({1-[(2R)-tetrahydrofuran-2-ylmethyl]-1H-pyrazol-3-yl}carbonyl)pyrimidin-4-yl]amino}cyclopentyl]methyl sulfamate and [(1R,2S,4R)-2-hydroxy-4-{[5-({1-[(2S)-tetrahydrofuran-2-ylmethyl]-1H-pyrazol-3-yl}carbonyl)pyrimidin-4-yl]amino}cyclopentyl]methyl sulfamate] | 0.1 to 1 µM | 38%
6 | Cc1cc(C(=O)c2cncnc2N[C@@H]2C[C@H](COS(N)(=O)=O)[C@@H](O)[C@@H]2F)cn1Cc1cccc(Br)c1 [Compound I-71, {(1R,2R,3R,4R)-4-[(5-{[1-(3-bromobenzyl)-5-methyl-1H-pyrrol-3-yl]carbonyl}pyrimidin-4-yl)amino]-3-fluoro-2-hydroxycyclopentyl}methyl sulfamate] | < 0.01 µM | 100%
7 | CC#Cc1cccc(Cn2ccc(C(=O)c3cncnc3N[C@@H]3C[C@H](COS(N)(=O)=O)[C@@H](O)C3)n2)c1 [Compound I-84, [(1R,2S,4R)-2-hydroxy-4-{[5-({1-[3-(prop-1-yn-1-yl)benzyl]-1H-pyrazol-3-yl}carbonyl)pyrimidin-4-yl]amino}cyclopentyl]methyl sulfamate] | < 0.01 µM | 95%
8 | NS(=O)(=O)OC[C@H]1C[C@@H](Nc2ncncc2C(=O)c2ccn(Cc3ccccc3)c2)C[C@@H]1O [Compound I-300, [(1R,2S,4R)-4-({5-[(1-Benzyl-1H-pyrrol-3-yl)carbonyl]pyrimidin-4-yl}amino)-2-hydroxycyclopentyl]methyl sulfamate] | < 0.01 µM | 97%
9 | CC(C)(C)c1cccc(Cn2ccc(C(=O)c3cncnc3N[C@@H]3C[C@H](COS(N)(=O)=O)[C@@H](O)C3)n2)c1 [Compound I-64, {(1R,2S,4R)-4-[(5-{[1-(3--tert-butylbenzyl)-1H-pyrazol-3-yl]carbonyl}pyrimidin-4-yl)amino]-2-hydroxycyclopentyl}methyl sulfamate] | 0.01 to 0.1 µM | 91%
10 | Cc1cccc(Cn2ccc(C(=O)c3cncnc3N[C@@H]3C[C@H](COS(N)(=O)=O)[C@@H](O)C3)n2)n1 [Compound I-298, [(1R,2S,4R)-2-hydroxy-4-{[5-({1-[(6-methylpyridin-2-yl)methyl]-1H-pyrazol-3-yl}carbonyl)pyrimidin-4-yl]amino}cyclopentyl]methyl sulfamate] | < 0.01 µM | 97%
11 | NS(=O)(=O)OC[C@H]1C[C@@H](Nc2ncncc2C(=O)c2ccn(CC3CCCCC3)n2)[C@H](O)[C@@H]1O [Compound I-82, {(1R,2R,3S,4R)-4-[(5-{[1-(cyclohexylmethyl)-1H-pyrazol-3-yl]carbonyl}pyrimidin-4-yl)amino]-2,3-dihydroxycyclopentyl}methyl sulfamate] | < 0.01 µM | 96%
12 | NS(=O)(=O)OC[C@H]1C[C@@H](Nc2ncncc2C(=O)c2ccn(Cc3cccc(OC(F)F)c3)n2)[C@@H](F)[C@@H]1O [Compound I-303, [(1R,2R,3R,4R)-4-{[5-({1-[3-(difluoromethoxy)benzyl]-1H-pyrazol-3-yl}carbonyl)pyrimidin-4-yl]amino}-3-fluoro-2-hydroxycyclopentyl]methyl sulfamate] | < 0.01 µM | 99%
13 | NS(=O)(=O)OC[C@H]1C[C@@H](Nc2ncncc2C(=O)c2ccn(Cc3ccc(F)c(I)c3)n2)[C@@H](F)[C@@H]1O [Compound I-178, {(1R,2R,3R,4R)-3-fluoro-4-[(5-{[1-(4-fluoro-3-iodobenzyl)-1H-pyrazol-3-yl]carbonyl}pyrimidin-4-yl)amino]-2-hydroxycyclopentyl}methyl sulfamate] | < 0.01 µM | 99%
14 | NS(=O)(=O)OC[C@H]1C[C@@H](Nc2ncncc2C(=O)c2ccn(Cc3cc(F)cc(C(F)(F)F)c3)c2)C[C@@H]1O [Compound I-213, [(1R,2S,4R)-4-{[5-({1-[3-fluoro-5-(trifluoromethyl)benzyl]-1H-pyrrol-3-yl}carbonyl)pyrimidin-4-yl]amino}-2-hydroxycyclopentyl]methyl sulfamate] | < 0.01 µM | 97%
15 | NS(=O)(=O)OC[C@H]1C[C@@H](Nc2ncncc2C(=O)c2ccn(Cc3cccc4nccn34)c2)[C@@H](F)[C@@H]1O [Compound I-237, {(1R,2R,3R,4R)-3-fluoro-2-hydroxy-4-[(5-{[1-(imidazo[1,2-a]pyridin-5-ylmethyl)-1H-pyrrol-3-yl]carbonyl}pyimidin-4-yl)amino]cyclopentyl}methyl sulfamate] | 0.01 to 0.1 µM | 85%
16 | NS(=O)(=O)OC[C@H]1C[C@@H](Nc2ncncc2C(=O)c2ccn(Cc3cccc(Cl)c3)n2)C[C@@H]1O [Compound I-215, {(1R,2S,4R)-4-[(5-{[1-(3-chlorobenzyl)-1H-pyrazol-3-yl]carbonyl}pyrimidin-4-yl)amino]-2-hydroxycyclopentyl}methyl sulfamate] | < 0.01 µM | 99%
17 | NS(=O)(=O)OC[C@H]1C[C@@H](Nc2ncncc2C(=O)c2ccn(Cc3cccc(F)c3)n2)[C@H](O)[C@@H]1O [Compound I-123, {(1R,2R,3S,4R)-4-[(5-{[1-(3-fluorobenzyl)-1H-pyrazol-3-yl]carbonyl}pyrimidin-4-yl)amino]-2,3-dihydroxycyclopentyl}methyl sulfamate] | < 0.01 µM | 100%
18 | NS(=O)(=O)OC[C@H]1C[C@@H](Nc2ncncc2C(=O)c2ccn(Cc3cccc(C4(O)COC4)c3)n2)C[C@@H]1O [Compound I-270, [(1R,2S,4R)-2-hydroxy-4-{[5-{{1-[3-(3-hydroxyoxetan-3-yl)benzyl]-1H-pyrazol-3-yl}carbonyl)pyrimidin-4-yl]amino}cyclopentyl]methyl sulfamate] | 0.01 to 0.1 µM | 87%
